From patent US20090318446A1, “4-(1H-Indol-3-yl)-Pyrimidin-2-Ylamine Derivatives and Their Use in Therapy” (Cyclacel Limited, priority 2005, published 2009)

Key:
[1] = test system: Mia-PaCa-2; test: MTT cytotoxicity assay, Mia-PaCa-2; assay type: cell-based; conditions: Homo sapiens, after incubation
Experimental: (§1) The compounds of the invention were subjected to a standard cellular proliferation assay using human tumour cell lines obtained from the ATCC (American Type Culture Collection, 10801 University Boulevard, Manessas, Va. 20110-2209, USA). […] C.; Thomas, D. G.; Darling, J. L. Anti Cancer Drugs 1996, 7, 331-8; Loveland, B. E.; Johns, T. G.; Mackay, 1. R.; Vaillant, F.; Wang, Z. X.; Hertzog, P. J. Biochemistry International 1992, 27, 501-10). In short: cells were seeded into 96-well plates according to doubling time and incubated overnight at 37° C. […] MTT was made up as a stock of 5 mg/mL in cell media and filter-sterilised. Media was removed from cells followed by a wash with 200 μL PBS. MTT solution was then added at 20 μL per well and incubated in the dark at 37° C. for 4 h MTT solution was removed and cells again washed with 200 μL PBS. MTT dye was solubilised with 200 μL per well of DMSO with agitation. Absorbance was read at 540 nm and data analysed using curve-fitting software (GraphPad Prism version 3.00 for Windows, GrapbPad Software, San Diego Calif. USA) to determine IC50 values (concentration of test compound which inhibits cell growth by 50%).

[2] = test system: A2780; test: MTT cytotoxicity assay, A2780; assay type: cell-based; conditions: Homo sapiens, after incubation
Experimental: as §1

[3] = target: CDK7/cyclin H (Homo sapiens, UniProt P50613); test: CDK 7 assay; assay type: biochemical; conditions: Table 3; read-out: Kinase inhibition CDK7H
CDK7/cyclin H, sequence (P50613 whole entry): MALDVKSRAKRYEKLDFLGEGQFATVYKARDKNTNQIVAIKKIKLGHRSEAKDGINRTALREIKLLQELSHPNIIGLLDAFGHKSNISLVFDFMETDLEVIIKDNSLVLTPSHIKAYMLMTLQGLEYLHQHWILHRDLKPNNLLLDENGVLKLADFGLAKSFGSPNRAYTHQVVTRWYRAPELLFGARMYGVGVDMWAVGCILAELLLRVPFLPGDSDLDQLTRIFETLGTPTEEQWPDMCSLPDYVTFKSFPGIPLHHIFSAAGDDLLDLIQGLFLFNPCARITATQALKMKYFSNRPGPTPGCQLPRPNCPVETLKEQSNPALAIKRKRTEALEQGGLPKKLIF
CDK7/cyclin H, sequence (P51946 whole entry partner): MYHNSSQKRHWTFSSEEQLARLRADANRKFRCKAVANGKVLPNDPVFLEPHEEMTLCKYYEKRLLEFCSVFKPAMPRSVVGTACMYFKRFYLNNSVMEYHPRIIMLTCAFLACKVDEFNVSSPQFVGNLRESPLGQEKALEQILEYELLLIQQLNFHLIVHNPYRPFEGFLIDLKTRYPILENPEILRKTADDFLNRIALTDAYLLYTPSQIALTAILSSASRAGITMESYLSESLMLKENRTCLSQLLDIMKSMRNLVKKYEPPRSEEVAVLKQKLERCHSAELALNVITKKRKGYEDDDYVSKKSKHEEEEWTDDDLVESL
Experimental: CTD peptide substrate (biotinyl-Ahx-(Tyr-Ser-Pro-Thr-Ser-Pro-Ser)4-NH2; 1-2 mg/mL) and recombinant human CDK7/cyclin H, CDK9/cyclin TI, or CDK9/cyclin K (0.5-2 μg) were incubated for 45 min at 30° C. in the presence of varying amounts of test compound in 20 mM MOPS pH 7.2, 25 mM β-glycerophosphate, 5 mM EGTA, 1 mM DTT, 1 mM sodium vanadate, 15 mM MgCl2, and 100 μM ATP (containing a trace amount of ^32PγATP) in a total volume of 25 μL in a 96-well microtiter plate. The reaction was stopped by placing the plate on ice for 2 min. Avidin (50 μg) was added to each well, and the plate was incubated at room temp for 30 min. The samples were transferred to a 96-well P81 filter plate, and washed (4×200 μL per well) with 75 mM phosphoric acid. Microscint 40 scintillation liquid (50 μL) was added to each well, and the amount of ^32P incorporation for each sample was measured using a Packard Topcount microplate scintillation counter.

[4] = target: T1, Flt-3 (Homo sapiens, UniProt P36888); test: Flt3 kinase assay; assay type: biochemical; conditions: Table 3; read-out: Kinase inhibition Flt3
T1 construct: purchased Upstate, Dundee, UK
T1 sequence (P36888 564-993 limits assumed): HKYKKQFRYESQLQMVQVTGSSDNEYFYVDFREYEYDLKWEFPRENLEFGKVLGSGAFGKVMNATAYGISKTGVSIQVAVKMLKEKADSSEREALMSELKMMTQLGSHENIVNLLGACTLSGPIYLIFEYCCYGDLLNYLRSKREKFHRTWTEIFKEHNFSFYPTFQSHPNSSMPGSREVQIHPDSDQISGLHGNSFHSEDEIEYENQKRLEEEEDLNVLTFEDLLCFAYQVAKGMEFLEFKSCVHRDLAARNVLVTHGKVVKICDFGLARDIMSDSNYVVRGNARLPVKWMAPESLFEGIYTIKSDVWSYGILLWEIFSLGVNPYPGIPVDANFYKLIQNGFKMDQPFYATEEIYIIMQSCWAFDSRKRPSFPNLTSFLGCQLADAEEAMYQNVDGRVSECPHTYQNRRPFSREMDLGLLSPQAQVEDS
Experimental: This was achieved by measurement of incorporation of radioactive phosphate from ATP into myelin basic protein (MBP) substrate, upon phosphorylation by commercially obtained Flt-3 Upstate, Dundee, UK). Assays were performed using 96-well plates and appropriate assay buffers (20 mM Tris, 25 mM β-glycerophosphate, 5 mM EGTA, 1 mM DTT, 1 mM sodium vanadate, pH 7.5), into which were added 5 ng of active enzyme with 0.4 mg/ml substrate (MBP). The reactions were initiated by addition of MgATP mix (15 mM MgCl2+100 μM ATP with 15-25 kBq per well of [γ-^32P]-ATP) and mixtures incubated for 30 min at 30° C. Reactions were stopped by addition of an equal volume of 75 mM aq orthophosphoric acid, followed by filtration through p81 filterplates (Whatman Polyfiltronics, Kent, UK). After washing 4 times with 75 mM aq orthophosphoric acid, plates were dried, scintillant added and incorporated radioactivity measured in a scintillation counter (TopCount, Packard Instruments, Pangbourne, Berks, UK). Compounds for kinase assay were made up as 10 mM stocks in DMSO and diluted into 10% DMSO in assay buffer. Data was analysed using curve-fitting software (XLfit version 4.0.2, IDBS, Guildford, Surrey, UK) to determine IC50 values (concentration of test compound which inhibits kinase activity by 50%).

[5] = target: T2, aurora-B (Homo sapiens, UniProt Q96GD4); test: Aurora-B (human) kinase assay; assay type: biochemical; conditions: Table 3; read-out: Kinase inhibition Aurora B
T2 construct: purchased Upstate, Dundee, UK
T2 sequence (Q96GD4 whole entry): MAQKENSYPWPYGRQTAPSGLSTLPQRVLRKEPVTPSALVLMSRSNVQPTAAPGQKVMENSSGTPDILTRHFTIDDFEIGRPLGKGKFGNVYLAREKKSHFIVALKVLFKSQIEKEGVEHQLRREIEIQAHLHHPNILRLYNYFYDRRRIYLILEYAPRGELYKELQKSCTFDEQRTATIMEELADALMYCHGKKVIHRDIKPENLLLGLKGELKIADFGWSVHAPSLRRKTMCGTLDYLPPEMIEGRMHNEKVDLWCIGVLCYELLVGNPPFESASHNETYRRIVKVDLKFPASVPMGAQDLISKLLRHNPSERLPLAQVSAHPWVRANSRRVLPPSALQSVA
Experimental: This was achieved by measurement of incorporation of radioactive phosphate from ATP into Kemptide substrate (LRRASLG), upon phosphorylation by commercially obtained aurora-B (human, Upstate, Dundee, UK). Assays were performed using 96-well plates and appropriate assay buffers (20 mM Tris, 25 mM β-glycerophosphate, 5 mM EGTA, 1 mM DTT, 1 mM sodium vanadate, pH 7.5), into which were added 75 ng of pre-activated enzyme with 500 μM substrate (Kemptide). The reactions were initiated by addition of MgATP mix (15 mM MgCl2+100 μM ATP with 15-25 kBq per well of [γ-^32P]-ATP) and mixtures incubated for 60 min at 30° C. Reactions were stopped by addition of an equal volume of 75 mM aq orthophosphoric acid, followed by filtration through p81 filterplates (Whatman Polyfiltronics, Kent, UK). After washing 4 times with 75 mM aq orthophosphoric acid, plates were dried, scintillant added and incorporated radioactivity measured in a scintillation counter (TopCount, Packard Instruments, Pangbourne, Berks, UK). Compounds for kinase assay were made up as 10 mM stocks in DMSO and diluted into 10% DMSO in assay buffer. Data was analysed using curve-fitting software (XLfit version 4.0.2, IDBS, Guildford, Surrey, UK) to determine IC50 values (concentration of test compound which inhibits kinase activity by 50%).
Aurora-B (human, Upstate, Dundee, UK) was pre-activated immediately prior to kinase assay in appropriate buffers (20 mM Tris, 25 mM β-glycerophosphate, 5 mM EGTA, 1 mM DTT, 1 mM sodium vanadate, pH 7.5) by incubating 15 μg of enzyme with 4 μg INCENP (Upstate, Dundee, UK) in the presence of MgATP mix (15 mM MgCl2+100 μM ATP) for 15 min at 30° C.

[6] = target: CDK2/cyclin E (Homo sapiens, UniProt P24941); test: Kinase assay CDK2/cyclin E; assay type: biochemical; conditions: Table 3; read-out: Kinase inhibition CDK2E
Experimental: The compounds from the examples above were investigated for their ability to inhibit the enzymatic activity of various protein kinases. This was achieved by measurement of incorporation of radioactive phosphate from ATP into appropriate polypeptide substrates. Recombinant protein kinases and kinase complexes were produced or obtained commercially. Assays were performed using 96-well plates and appropriate assay buffers (typically 25 mM β-glycerophosphate, 20 mM MOPS, 5 mM EGTA, 1 mM DTT, 1 mM […], pH 7.4), into which were added 2-4 μg of active enzyme with appropriate substrates. The reactions were initiated by addition of Mg/ATP mix (15 mM MgCl2+100 μM ATP with 30-50 kBq per well of [γ-^32P]-ATP) and mixtures incubated as required at 30° C. Reactions were stopped on ice, followed by filtration through p81 filterplates or GF/C filterplates (Whatman Polyfiltronics, Kent, UK). After washing 3 times with 75 mM aq orthophosphoric acid, plates were dried, scintillant added and incorporated radioactivity measured in a scintillation counter (TopCount, Packard Instruments, Pangbourne, Berks, UK). Compounds for kinase assay were made up as 10 mM stocks in DMSO and diluted into 10% DMSO in assay buffer. Data was analysed using curve-fitting software (GraphPad Prism version 3.00 for Windows, GraphPad Software, San Diego Calif. USA) to determine IC50 values (concentration of test compound which inhibits kinase activity by 50%).

[7] = target: PKC-δ (Homo sapiens, UniProt Q05655); conditions: reported in reference [74]; cited from earlier work
PKC-δ, sequence (Q05655 whole entry): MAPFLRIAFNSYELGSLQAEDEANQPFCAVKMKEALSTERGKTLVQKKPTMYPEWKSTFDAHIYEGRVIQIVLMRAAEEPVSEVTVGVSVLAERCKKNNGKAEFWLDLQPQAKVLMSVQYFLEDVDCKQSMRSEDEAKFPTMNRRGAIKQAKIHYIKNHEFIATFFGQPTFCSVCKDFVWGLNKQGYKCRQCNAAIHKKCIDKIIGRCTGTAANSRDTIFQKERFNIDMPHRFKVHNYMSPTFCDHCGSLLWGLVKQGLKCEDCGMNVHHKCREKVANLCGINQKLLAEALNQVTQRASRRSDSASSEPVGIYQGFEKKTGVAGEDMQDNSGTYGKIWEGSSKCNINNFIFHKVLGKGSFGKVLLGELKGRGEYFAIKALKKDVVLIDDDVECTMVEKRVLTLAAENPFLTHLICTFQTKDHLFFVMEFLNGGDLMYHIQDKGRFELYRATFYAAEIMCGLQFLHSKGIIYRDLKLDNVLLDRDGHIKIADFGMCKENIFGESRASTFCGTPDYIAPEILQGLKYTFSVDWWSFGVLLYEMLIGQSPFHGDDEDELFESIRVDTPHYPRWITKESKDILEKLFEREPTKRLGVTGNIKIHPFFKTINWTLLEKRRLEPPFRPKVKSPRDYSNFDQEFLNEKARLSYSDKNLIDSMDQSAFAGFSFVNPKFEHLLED

[8] = target: PKC-α (Homo sapiens, UniProt P17252); conditions: reported in reference [74]; cited from earlier work
[9] = target: EGF-R (Homo sapiens, UniProt P00533); conditions: reported in reference [74]; cited from earlier work
EGF-R, sequence (P00533 25-1210, species assumed): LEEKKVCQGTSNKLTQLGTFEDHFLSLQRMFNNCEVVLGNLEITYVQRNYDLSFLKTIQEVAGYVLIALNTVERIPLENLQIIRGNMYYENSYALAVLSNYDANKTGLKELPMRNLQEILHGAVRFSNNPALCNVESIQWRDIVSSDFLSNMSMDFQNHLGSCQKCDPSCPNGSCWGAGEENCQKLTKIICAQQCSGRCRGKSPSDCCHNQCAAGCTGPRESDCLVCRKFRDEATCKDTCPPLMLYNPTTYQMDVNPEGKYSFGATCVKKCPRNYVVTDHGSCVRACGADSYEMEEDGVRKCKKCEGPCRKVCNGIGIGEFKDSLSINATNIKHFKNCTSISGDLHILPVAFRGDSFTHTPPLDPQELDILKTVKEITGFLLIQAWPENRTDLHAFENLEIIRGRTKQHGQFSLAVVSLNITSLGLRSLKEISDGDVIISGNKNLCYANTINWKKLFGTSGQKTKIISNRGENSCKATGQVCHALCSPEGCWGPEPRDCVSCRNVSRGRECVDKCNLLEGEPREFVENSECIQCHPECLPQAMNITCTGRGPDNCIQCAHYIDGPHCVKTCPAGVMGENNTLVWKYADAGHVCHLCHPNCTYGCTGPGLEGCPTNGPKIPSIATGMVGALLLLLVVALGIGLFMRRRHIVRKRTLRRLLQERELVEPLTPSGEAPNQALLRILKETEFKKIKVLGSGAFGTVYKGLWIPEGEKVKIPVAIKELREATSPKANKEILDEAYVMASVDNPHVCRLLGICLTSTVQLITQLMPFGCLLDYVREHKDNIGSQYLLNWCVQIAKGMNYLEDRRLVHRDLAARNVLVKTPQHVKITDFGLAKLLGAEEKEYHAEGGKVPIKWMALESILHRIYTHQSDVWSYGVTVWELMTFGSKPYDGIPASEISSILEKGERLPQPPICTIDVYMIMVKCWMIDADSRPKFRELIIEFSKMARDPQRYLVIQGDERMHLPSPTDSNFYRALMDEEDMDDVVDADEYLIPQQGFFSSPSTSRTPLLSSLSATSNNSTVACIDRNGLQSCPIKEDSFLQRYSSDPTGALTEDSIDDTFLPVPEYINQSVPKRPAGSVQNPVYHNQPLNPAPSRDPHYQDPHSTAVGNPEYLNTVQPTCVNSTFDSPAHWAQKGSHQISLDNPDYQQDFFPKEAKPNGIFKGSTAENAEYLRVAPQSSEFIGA

Row | IC50 [3] | IC50 [4] | IC50 [5] | IC50 [6] | SMILES | IC50 [1] | IC50 [2] | kinase inhibition PKC-δ [7] | kinase inhibition PKC-α [8] | kinase inhibition EGF-R [9]
1 | 6.04 µM | 0.0788 µM | 1.41 µM | – | c1ccc(CN2CCN(c3ccc(Nc4nccc(-c5c[nH]c6ccccc56)n4)cc3)CC2)cc1 [Compound 8, 4-(1H-indol-3-yl)-N-(4-benzylpiperazin-1-ylphenyl)pyrimidin-2-amine] | 5.46 µM | 5.43 µM | – | – | –
2 | – | 0.726 µM | – | 0.332 µM | Cc1cc(N2CCOCC2)ccc1Nc1nccc(-c2c[nH]c3ccccc23)n1 [Compound 11, 4-(1H-indol-3-yl)-N-(2-methyl-4-morpholin-4-ylphenyl)pyrimidin-2-amine] | 6.82 µM | 4.66 µM | – | – | –
3 | – | – | – | – | FC(F)C(F)(F)Oc1cccc(Nc2nccc(-c3c[nH]c4ccccc34)n2)c1 [[4-(1H-indol-3-yl)-pyrimidin-2-yl]-[3-(1,1,2,2-tetrafluoro-ethoxy)-phenyl]-amine] | – | – | shown to inhibit | shown to inhibit | shown to inhibit
